Test results reported in patent US8637058B2, “Compositions based on cupric salts, cupric salts and their use for controlling phytopathogens” (priority 2001, dated 2014).

Test system: isolated portion of the phytopathogen with a reduced sensitivity (Plasmopara viticola)
Test: Control of Plasmopara viticola on grapes, preventive leaf application (greenhouse test), isolate with reduced sensitivity
Format: in vivo
Conditions: fungicide alone at 0.05 ppm, scale 100 to 0
Experimental: Efficacy of Compound Nr. 1 Mixed with Another Fungicidal Compound in the Control of Plasmopara viticola on Grapes in Preventive Leaf Application (Greenhouse Test) Table 3.
Leaves of cultivar Dolcetto grape vines, cultivated in vases, in a conditioned environment (20±1° C., 70% relative humidity) are treated by spraying both sides of the leaves with compound Nr. 1 mixed with another fungicide dispersed in a hydroacetone solution at 10% by volume of acetone containing 0.3% of tween 20.
After remaining 24 hours in a conditioned environment, the plants are infected on the lower side with an aqueous suspension of spores of Plasmopara viticola (200,000 spores per cm^3).
The plants are kept in a humidity saturated environment, at 21° C., for the incubation period of the fungus and, at the end of this period (7 days), the fungicidal activity is evaluated according to a percentage evaluation scale from 100 (healthy plant) to 0 (completely infected plant).
From the data indicated in Table 3, the synergic effect of the mixtures, consisting of compound Nr. […]
When the fungicidal activity experimentally evaluated is greater than the value of E, this activity should be considered as a synergic effect.

SMILES: COCC(=O)N(c1c(C)cccc1C)C(C)C(=O)OC (stereo not shown) [Metalaxyl, metalaxyl]
- Activity (y): 12
